# Results from paper PMC6146285 (Journal of pharmacological and toxicological methods, 2018).
# Like-named read-outs stand apart in the source and are kept apart here.
# What was measured:
# Type in all cases: cell-based, human
# hiPSC-CMs = details: for Arrhythmia incidence by dose level: all sites and cell types tested; for FPDmax compared to pre-addition values: 30 min post compound addition, low risk compounds; for Arrhythmia: one site; for Inotropic effect (impedance signal): hiPSC-CMs; for Average % change in EFP amplitude / FPDmax: with increasing concentrations; for FPD prolongation: cell types other than CLS
# [1] = system: CDI (iCell Cardiomyocytes^2, Cellular Dynamics International) hiPSC-CMs
# [2] = system: PLR (Pluricyte Cardiomyocytes, Ncardia) hiPSC-CMs
# [3] = system: AXG (Cor.4U, Ncardia) hiPSC-CMs
# [4] = system: CLS (Cellartis Cardiomyocytes, Takara Bio Clontech) hiPSC-CMs
# [5] = all sites and cell types, dose levels of Table 3
compound,measurement,setting,value
COc1ccc(CCN2CCC(Nc3nc4ccccc4n3Cc3ccc(F)cc3)CC2)cc1 [Astemizole],Arrhythmia incidence by dose level,hiPSC-CMs; dose levels of Table 3,"arrhythmia in most cases at dose 3, and almost all cases at dose 4"
CN(C)CCCN1c2ccccc2Sc2ccc(Cl)cc21 [Chlorpromazine],Arrhythmic events,hiPSC-CMs; independent of the cell type or site,did not induce arrhythmic events
COc1cc(N)c(Cl)cc1C(=O)NC1CCN(CCCOc2ccc(F)cc2)CC1OC (stereo not drawn) [Cisapride],Arrhythmia incidence by dose level,hiPSC-CMs; dose levels of Table 3,"arrhythmia in most cases at dose 3, and almost all cases at dose 4"
CC[C@H]1OC(=O)[C@H](C)[C@@H](O[C@H]2C[C@@](C)(OC)[C@@H](O)[C@H](C)O2)[C@H](C)[C@@H](O[C@@H]2O[C@H](C)C[C@H](N(C)C)[C@H]2O)[C@](C)(OC)C[C@@H](C)C(=O)[C@H](C)[C@@H](O)[C@]1(C)O [Clarithromycin],Arrhythmia incidence by dose level,hiPSC-CMs; dose levels of Table 3,"arrhythmia in most cases at dose 3, and almost all cases at dose 4"
"CC(C)NCC(O)c1ccc(NS(C)(=O)=O)cc1 (stereo not drawn) [D,l Sotalol]",Arrhythmic events,"[1]; CDI, 10 μM",EAD-like events and ectopic beats
same,BRCoV,"[1]; CDI, post addition of 10 μM",large increase
same,Beat rate,"[1]; CDI, post addition of 10 μM",decrease
same,Impedance amplitude,"[1]; CDI, post addition of 10 μM",remains unchanged
same,Arrhythmia detection starting at (dose level),hiPSC-CMs; [5],dose 3
COc1ccc([C@@H]2Sc3ccccc3N(CCN(C)C)C(=O)[C@@H]2OC(C)=O)cc1 [Diltiazem],FPDmax compared to pre-addition values,hiPSC-CMs,decrease
CC(C)N(CCC(C(N)=O)(c1ccccc1)c1ccccn1)C(C)C (stereo not drawn) [Disopyramide],Arrhythmia,hiPSC-CMs; 10 and 100 μM,Arrhythmia was detected
same,Arrhythmia detection starting at (dose level),hiPSC-CMs; [5],dose 3
same,Inotropic effect (impedance signal),hiPSC-CMs,negative inotropic effect
same,Average % change in impedance amplitude,"hiPSC-CMs; with increasing concentration, all cell types at one site",decreased
same,Average % change in EFP amplitude,hiPSC-CMs; all cell types at one site,decreased
same,FPDmax,hiPSC-CMs; all cell types at one site,increased
O=c1[nH]c2ccccc2n1CCCN1CCC(n2c(=O)[nH]c3cc(Cl)ccc32)CC1 [Domperidone],Arrhythmia,"hiPSC-CMs; 0.3, 3 μM",arrhythmia is marked
same,Arrhythmia incidence by dose level,hiPSC-CMs; dose levels of Table 3,"arrhythmia in most cases at dose 3, and almost all cases at dose 4"
same,Inotropic effect (impedance signal),hiPSC-CMs,negative inotropic effect
same,Average % change in EFP amplitude,hiPSC-CMs; all cell types at one site,decreased
same,FPDmax,hiPSC-CMs; all cell types at one site,increased
O=C(CCCN1CC=C(n2c(=O)[nH]c3ccccc32)CC1)c1ccc(F)cc1 [Droperidol],Arrhythmic events,[2]; 0.3 μM,rolling EAD-like events
same,FPDmax,[2]; 0.3 μM,increase
same,Beat rate,[2]; post addition of 0.3 μM,decrease
same,Beat rate coefficient of variation,[2]; post addition of 0.3 μM,increase
same,Impedance amplitude,[2]; post addition of 0.3 μM,remains unchanged
same,Arrhythmia incidence by dose level,hiPSC-CMs; dose levels of Table 3,"arrhythmia in most cases at dose 3, and almost all cases at dose 4"
CCOC(=O)N1CCC(=C2c3ccc(Cl)cc3CCc3cccnc32)CC1 [Loratadine],FPDmax compared to pre-addition values,hiPSC-CMs,not a significant change
COC(=O)C1=C(C)NC(C)=C(C(=O)OC)C1c1ccccc1[N+](=O)[O-] [Nifedipine],Chronic effect on cell viability (base impedance),"[3]; AXG, recorded over 24 h",time and concentration-dependent reduction of cell viability
same,FPDmax compared to pre-addition values,hiPSC-CMs,decrease
same,Inotropic effect (impedance signal),hiPSC-CMs,negative inotropic effect
CCOC(=O)C1=C(C)NC(C)=C(C(=O)OC)C1c1cccc([N+](=O)[O-])c1 (stereo not drawn) [Nitrendipine],FPDmax compared to pre-addition values,hiPSC-CMs,decrease
Cc1nccn1CC1CCc2c(c3ccccc3n2C)C1=O (stereo not drawn) [Ondansetron],Arrhythmia incidence by dose level,hiPSC-CMs; dose levels of Table 3,"arrhythmia in most cases at dose 3, and almost all cases at dose 4"
O=c1[nH]c2ccccc2n1C1CCN(CCCC(c2ccc(F)cc2)c2ccc(F)cc2)CC1 [Pimozide],Arrhythmogenicity,"[3]; site 4, AXG cells",not arrhythmogenic
same,Arrhythmia incidence by dose level,hiPSC-CMs; dose levels of Table 3,"arrhythmia in most cases at dose 3, and almost all cases at dose 4"
C=C[C@H]1C[N@@]2CC[C@H]1C[C@@H]2[C@@H](O)c1ccnc2ccc(OC)cc12 [Quinidine],Arrhythmia detection starting at (dose level),hiPSC-CMs; [5],dose 2
same,Incidence of FPDmax>10% or > 30% started at (dose level),hiPSC-CMs; [5],dose 1
Cc1nc2n(c(=O)c1CCN1CCC(c3noc4cc(F)ccc34)CC1)CCCC2 [Risperidone],Change in the FPD,[1]; CDI cells,> 10%
same,Change in the FPD,[3]; AXG cells,no significant change
same,Change in the FPD,[4]; CLS cells,no significant change
CC/C(=C(\c1ccccc1)c1ccc(OCCN(C)C)cc1)c1ccccc1 [Tamoxifen],Decrease of average % change in EFP amplitude,"[1]; CDI, 3 μM, one site",~ 40%
same,Decrease of average % change in FPDmax,"[1]; CDI, 3 μM, one site",~ 40%
same,Increase in beat rate,"[1]; CDI, 3 μM, one site",~ 40%
same,Changes in average impedance signals,"[1]; CDI, 0.3, 0.9 and 3 μM",No significant changes
CC(C)(C)c1ccc(C(O)CCCN2CCC(C(O)(c3ccccc3)c3ccccc3)CC2)cc1 (stereo not drawn) [Terfenadine],Number of experiments with quiescence,hiPSC-CMs; other experiments,4
same,Number of experiments with arrhythmia,"hiPSC-CMs; site 4, AXG and site 4, CLS",2
COc1cc2c(Nc3ccc(Br)cc3F)ncnc2cc1OCC1CCN(C)CC1 [Vandetanib],Arrhythmia detection starting at (dose level),hiPSC-CMs; [5],dose 3
CN(CCOc1ccc(NS(C)(=O)=O)cc1)CCc1ccc(NS(C)(=O)=O)cc1 [dofetilide],FPD prolongation upon application,"[4]; CLS hiPSC-CMs, 0.5-10 nM",did not exhibit an expected FPD prolongation
same,FPD prolongation,hiPSC-CMs; 0.5 nM,approx. 10%
same,FPD prolongation,"hiPSC-CMs; 10 nM, arrhythmia present",~100%
same,Effect on FPD and arrhythmia,hiPSC-CMs; wells treated with 5 nM and 10 nM,prolongation of FPD and arrhythmia
